# Columns and labels:
# Format in all cases: functional
# Enterococcus faecalis [1] = assay: Antibacterial activity against VanB-resistant Enterococcus faecalis ATCC 51299 assessed as inhibition of bacterial growth by standard broth microdilution susceptibility method
# Staphylococcus aureus [2] = assay: Antibacterial activity against Staphylococcus aureus ATCC 25923 assessed as inhibition of bacterial growth by standard broth microdilution susceptibility method
# Enterococcus faecalis [3] = assay: Antibacterial activity against VanB-resistant Enterococcus faecalis ATCC 51299 assessed as inhibition of colony formation in BHIG medium incubated for 24 hrs by resazurin assay
# Enterococcus faecalis [4] = assay: Antibacterial activity against VanB-resistant Enterococcus faecalis ATCC 51299 assessed as inhibition of bacterial growth in BHIG medium incubated for 24 hrs by resazurin assay
# Enterococcus faecalis [5] = assay: Antibiofilm activity against VanB-resistant Enterococcus faecalis ATCC 51299 assessed as inhibition of biofilm formation by measuring decrease in RFU in BHIG medium incubated for 24 hrs by resazurin assay
# Enterococcus faecalis [6] = assay: Antibiofilm activity against VanB-resistant Enterococcus faecalis ATCC 51299 assessed as inhibition of biofilm formation in BHIG medium incubated for 24 hrs by resazurin assay
# Enterococcus gallinarum = assay: Antibacterial activity against VanC-resistant Enterococcus gallinarum ATCC 700221 assessed as inhibition of bacterial growth by standard broth microdilution susceptibility method
# Staphylococcus aureus [7] = assay: Antibacterial activity against methicillin-resistant Staphylococcus aureus ATCC 43300 assessed as inhibition of bacterial growth by standard broth microdilution susceptibility method
# Streptococcus pneumoniae = assay: Antibacterial activity against […] assessed as inhibition of bacterial growth by standard broth microdilution susceptibility method
# Staphylococcus aureus [8] = assay: Antibacterial activity against vancomycin-intermediate Staphylococcus aureus ATCC NRS1 assessed as inhibition of bacterial growth by standard broth microdilution susceptibility method
# Moraxella catarrhalis = assay: Antibacterial activity against Moraxella catarrhalis ATCC 8193 assessed as inhibition of bacterial growth by standard broth microdilution susceptibility method
# Enterococcus faecium [9] = assay: Antibacterial activity against VanA-resistant Enterococcus faecium MMX0485 assessed as inhibition of bacterial growth by standard broth microdilution susceptibility method
# Staphylococcus aureus [10] = assay: Antibacterial activity against heterogenous vancomycin-intermediate Staphylococcus aureus ATCC NRS24 assessed as inhibition of bacterial growth by standard broth microdilution susceptibility method
# Clostridioides difficile = assay: Antibacterial activity against Clostridium difficile ATCC 43255 assessed as inhibition of bacterial growth by standard broth microdilution susceptibility method
# Staphylococcus aureus [11] = assay: Potency index, ratio of vancomycin MIC to test compound MIC for antibacterial activity against heterogenous vancomycin-intermediate Staphylococcus aureus ATCC NRS24 assessed as inhibition of bacterial growth by standard broth microdilution susceptibility method
# Staphylococcus aureus [12] = assay: Potency index, ratio of vancomycin MIC to test compound MIC for antibacterial activity against vancomycin-intermediate Staphylococcus aureus ATCC NRS1 assessed as inhibition of bacterial growth by standard broth microdilution susceptibility method
# Enterococcus faecalis [13] = assay: Potency index, ratio of vancomycin MIC to test compound MIC for antibacterial activity against VanB-resistant Enterococcus faecalis ATCC 51299 assessed as inhibition of bacterial growth by standard broth microdilution susceptibility method
# Enterococcus faecium [14] = assay: Potency index, ratio of vancomycin MIC to test compound MIC for antibacterial activity against VanA-resistant Enterococcus faecium MMX0485 assessed as inhibition of bacterial growth by standard broth microdilution susceptibility method
SMILES,MIC (Enterococcus faecalis [1]) [µg/mL],MIC (Staphylococcus aureus [2]) [µg/mL],Activity (Enterococcus faecalis [3]) [µg/mL],inhibition (INH) (Enterococcus faecalis [4]) [%],inhibition (INH) (Enterococcus faecalis [5]) [%],MBIC (Enterococcus faecalis [6]) [µg/mL],MIC (Enterococcus gallinarum) [µg/mL],MIC (Staphylococcus aureus [7]) [µg/mL],MIC (Streptococcus pneumoniae) [µg/mL],MIC (Staphylococcus aureus [8]) [µg/mL],MIC (Moraxella catarrhalis) [µg/mL],MIC (Enterococcus faecium [9]) [µg/mL],MIC (Staphylococcus aureus [10]) [µg/mL],MIC (Clostridioides difficile) [µg/mL],Ratio (Staphylococcus aureus [11]),Ratio (Staphylococcus aureus [12]),Ratio (Enterococcus faecalis [13]),Ratio (Enterococcus faecium [14])
CN[C@H](CC(C)C)C(=O)N[C@H]1C(=O)N[C@@H](CC(N)=O)C(=O)N[C@H]2C(=O)N[C@H]3C(=O)N[C@H](C(=O)N[C@H](C(=O)NCCOCCNC(=O)CCCCC4CCSS4)c4cc(O)cc(O)c4-c4cc3ccc4O)[C@H](O)c3ccc(c(Cl)c3)Oc3cc2cc(c3O[C@@H]2O[C@H](CO)[C@@H](O)[C@H](O)[C@H]2O[C@H]2C[C@](C)(N)[C@H](O)[C@H](C)O2)Oc2ccc(cc2Cl)[C@H]1O (some centres not stated),4,4,8,100,97,8,8,2,,,,,,,,,,
CN[C@H](CC(C)C)C(=O)N[C@H]1C(=O)N[C@@H](CC(N)=O)C(=O)N[C@H]2C(=O)N[C@H]3C(=O)N[C@H](C(=O)N[C@H](C(=O)NCCSSc4ccccn4)c4cc(O)cc(O)c4-c4cc3ccc4O)[C@H](O)c3ccc(c(Cl)c3)Oc3cc2cc(c3O[C@@H]2O[C@H](CO)[C@@H](O)[C@H](O)[C@H]2O[C@H]2C[C@](C)(N)[C@H](O)[C@H](C)O2)Oc2ccc(cc2Cl)[C@H]1O,16,4,16,100,99,16,8,2,0.5,4,> 32,8,4,0.5,,,,
CCSSCCNC(=O)[C@H]1NC(=O)[C@H]2NC(=O)[C@H](NC(=O)[C@@H]3NC(=O)[C@H](CC(N)=O)NC(=O)[C@H](NC(=O)[C@@H](CC(C)C)NC)[C@H](O)c4ccc(c(Cl)c4)Oc4cc3cc(c4O[C@@H]3O[C@H](CO)[C@@H](O)[C@H](O)[C@H]3O[C@H]3C[C@](C)(N)[C@H](O)[C@H](C)O3)Oc3ccc(cc3Cl)[C@H]2O)c2ccc(O)c(c2)-c2c(O)cc(O)cc21,1,1,32,100,100,32,8,1,,,,,,,,,,
CN[C@H](CC(C)C)C(=O)N[C@H]1C(=O)N[C@@H](CC(N)=O)C(=O)N[C@H]2C(=O)N[C@H]3C(=O)N[C@H](C(=O)N[C@H](C(=O)NCCCCCCCCS)c4cc(O)cc(O)c4-c4cc3ccc4O)[C@H](O)c3ccc(c(Cl)c3)Oc3cc2cc(c3O[C@@H]2O[C@H](CO)[C@@H](O)[C@H](O)[C@H]2O[C@H]2C[C@](C)(N)[C@H](O)[C@H](C)O2)Oc2ccc(cc2Cl)[C@H]1O,8,4,8,100,98,8,8,4,0.5,2,8,2,2,4,,,,
CCCCCCSSCCNC(=O)[C@H]1NC(=O)[C@H]2NC(=O)[C@H](NC(=O)[C@@H]3NC(=O)[C@H](CC(N)=O)NC(=O)[C@H](NC(=O)[C@@H](CC(C)C)NC)[C@H](O)c4ccc(c(Cl)c4)Oc4cc3cc(c4O[C@@H]3O[C@H](CO)[C@@H](O)[C@H](O)[C@H]3O[C@H]3C[C@](C)(N)[C@H](O)[C@H](C)O3)Oc3ccc(cc3Cl)[C@H]2O)c2ccc(O)c(c2)-c2c(O)cc(O)cc21,0.25,0.12,2,100,100,2,4,0.12,0.06,0.5,2,16,0.5,0.5,16,16,16,16
